Measured values taken from patent US12473304B2, “Heterocyclic PAD4 inhibitors” (BRISTOL-MYERS SQUIBB COMPANY, priority 2020, dated 2025).

These compounds were tested against human PAD4 (hPAD4) (Homo sapiens (Human), UniProt Q9UM07) (assay: RFMS Human PAD4 Functional Assay 1). Details: RFMS assay 1; 5 nM hPAD4, 250 μM BAEE substrate, 50 μM calcium, 37° C.
Assay type: biochemical
Method in brief: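 Recombinant hPAD4 (5 nM) was preincubated with compound (top 50 μM, 0.5% DMSO) for 30 min at 37 °C, then reacted with 250 μM BAEE for 90 min at 37 °C in pH 7.5 HEPES buffer with 50 μM calcium and 5 μM TPEN. Product was derivatized with phenyl glyoxal and quantified by RapidFire MS.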

Sequence of human PAD4 (hPAD4) (Q9UM07 whole entry): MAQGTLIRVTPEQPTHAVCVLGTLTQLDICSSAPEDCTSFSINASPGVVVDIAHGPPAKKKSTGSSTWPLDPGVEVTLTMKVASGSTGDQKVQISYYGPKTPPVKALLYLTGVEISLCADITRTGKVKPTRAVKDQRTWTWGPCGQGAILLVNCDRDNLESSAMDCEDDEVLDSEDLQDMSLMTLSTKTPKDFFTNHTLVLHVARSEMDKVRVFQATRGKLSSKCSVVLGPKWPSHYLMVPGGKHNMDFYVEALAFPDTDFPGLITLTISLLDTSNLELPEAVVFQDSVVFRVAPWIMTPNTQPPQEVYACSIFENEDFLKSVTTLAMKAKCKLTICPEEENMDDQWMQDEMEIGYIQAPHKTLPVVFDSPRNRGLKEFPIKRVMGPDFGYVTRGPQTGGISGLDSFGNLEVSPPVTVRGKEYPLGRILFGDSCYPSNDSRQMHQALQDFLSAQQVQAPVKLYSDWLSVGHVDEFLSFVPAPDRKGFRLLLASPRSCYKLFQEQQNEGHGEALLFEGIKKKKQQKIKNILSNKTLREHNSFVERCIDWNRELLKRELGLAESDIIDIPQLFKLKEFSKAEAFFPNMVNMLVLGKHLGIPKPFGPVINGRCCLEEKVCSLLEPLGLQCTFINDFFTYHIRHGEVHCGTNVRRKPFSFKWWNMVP

IC50	Structure (SMILES)
233 nM	COc1cc(C(=O)N2CC3CCC2[C@@H]3N)cc2sc(-c3cc4ccc(-c5ccc6c(c5)C(=O)NC6)nc4n3CC3CC3)c(C)c12 (stereo partly drawn) [Example 135, 6-(2-(6-((7R)-7-Amino-2-azabicyclo[2.2.1]heptane-2-carbonyl)-4-methoxy-3-methylbenzo[b]thiophen-2-yl)-1-(cyclopropylmethyl)-1H-pyrrolo[2,3-b]pyridin-6-yl)isoindolin-1-one]
252 nM	COc1cc(C(=O)N2C[C@H](N)C[C@@H](F)C2)cc2sc(-c3cc4cccnc4n3CC3CC3)c(C)c12 [Example 138, ((3R,5R)-3-Amino-5-fluoropiperidin-1-yl)(2-(1-(cyclopropylmethyl)-1H-pyrrolo[2,3-b]pyridin-2-yl)-4-methoxy-3-methylbenzo[b]thiophen-6-yl)methanone]
198 nM	COc1cc(C(=O)N2C[C@H](N)C[C@@H](F)C2)cc2sc(-c3cc4ccc(-c5ccc6c(c5)CNC6=O)nc4n3CC3CC3)c(C)c12 [Example 139, 5-(2-(6-((3R,5R)-3-Amino-5-fluoropiperidine-1-carbonyl)-4-methoxy-3-methylbenzo[b]thiophen-2-yl)-1-(cyclopropylmethyl)-1H-pyrrolo[2,3-b]pyridin-6-yl)isoindolin-1-one]
346 nM	COc1cc(C(=O)N2C[C@H](N)C[C@@H](F)C2)cc2sc(-c3cc4ccc(-c5ccc6c(c5)C(=O)NC6)nc4n3CC3CC3)c(C)c12 [Example 140, 6-(2-(6-((3R,5R)-3-Amino-5-fluoropiperidine-1-carbonyl)-4-methoxy-3-methylbenzo[b]thiophen-2-yl)-1-(cyclopropylmethyl)-1H-pyrrolo[2,3-b]pyridin-6-yl)isoindolin-1-one]
179 nM	COc1cc(C(=O)N2C[C@H](N)C[C@@H](F)C2)cc2sc(-c3cc4ccc(-c5ccc(C(N)=O)c(F)c5)nc4n3CC3CC3)c(C)c12 [Example 141, 4-(2-(6-((3R,5R)-3-Amino-5-fluoropiperidine-1-carbonyl)-4-methoxy-3-methylbenzo[b]thiophen-2-yl)-1-(cyclopropylmethyl)-1H-pyrrolo[2,3-b]pyridin-6-yl)-2-fluorobenzamide]

Continued, compound first:

Structure (SMILES)	IC50
COc1cc(C(=O)N2CC3CCC2[C@@H]3N)cc2sc(-c3cc4ccc(-c5ccc(C(N)=O)c(F)c5)nc4n3CC3CC3)c(C)c12 (stereo partly drawn) [Example 133, 4-(2-(6-((7R)-7-Amino-2-azabicyclo[2.2.1]heptane-2-carbonyl)-4-methoxy-3-methylbenzo[b]thiophen-2-yl)-1-(cyclopropylmethyl)-1H-pyrrolo[2,3-b]pyridin-6-yl)-2-fluorobenzamide]	129 nM
COc1cc(C(=O)N2CC3CCC2[C@@H]3N)cc2sc(-c3cc4ccc(-c5cccc(O)c5F)nc4n3CC3CC3)c(C)c12 (stereo partly drawn) [Example 134, ((7R)-7-Amino-2-azabicyclo[2.2.1]heptan-2-yl)(2-(1-(cyclopropylmethyl)-6-(2-fluoro-3-hydroxyphenyl)-1H-pyrrolo[2,3-b]pyridin-2-yl)-4-methoxy-3-methylbenzo[b]thiophen-6-yl)methanone]	212 nM
COc1cc(C(=O)N2CC3CCC2[C@@H]3N)cc2sc(-c3cc4ccc(-c5ccc(O)c(F)c5)nc4n3CC3CC3)c(C)c12 (stereo partly drawn) [Example 136, ((7R)-7-Amino-2-azabicyclo[2.2.1]heptan-2-yl)(2-(1-(cyclopropylmethyl)-6-(3-fluoro-4-hydroxyphenyl)-1H-pyrrolo[2,3-b]pyridin-2-yl)-4-methoxy-3-methylbenzo[b]thiophen-6-yl)methanone]	705 nM
COc1cc(C(=O)N2CC3CCC2[C@@H]3N)cc2sc(-c3cc4ccc(N5CCC(OC)CC5)nc4n3CC3CC3)c(C)c12 (stereo partly drawn) [Example 137, ((7R)-7-Amino-2-azabicyclo[2.2.1]heptan-2-yl)(2-(1-(cyclopropylmethyl)-6-(4-methoxypiperidin-1-yl)-1H-pyrrolo[2,3-b]pyridin-2-yl)-4-methoxy-3-methylbenzo[b]thiophen-6-yl)methanone]	71 nM
